The source of these data is patent publication US10035814B2, “Guanine analogs as telomerase substrates and telomere length affectors” (Geron Corporation, priority 2011, dated 2018).

One test deals with telomerase (Homo sapiens (Human), UniProt O14746). Briefly: Primer extension assay for telomerase activity. In kind it is biochemical. As to conditions: for pEC50: read-out: Primer Ext. Assay EC50. How it is done: Purified human telomerase was incubated with d(TTAGGG)3 (SEQ ID NO: 1) and deoxy-nucleoside triphosphates for 90 minutes at 37° C. All reactions were done in the presence of 200 dTTP and 10 μM dATP (50,000 cpm/pmol a-^33P-dATP). Activity was determined by incubating affinity purified telomerase extract with 1 μM primer [d(TTAGGG)3] (SEQ ID NO: 1), 200 μM dTTP, 50 μM dGTP, 10 μM dATP, 10 μCi [α-^33P]dATP (2000-4000 Ci/mmol) in a buffer containing 50 mM (N-2-hydroxyethyl piperazine-N′-3 propanesulfonic acid)-NaOH pH 8.5, 1 mM MgCl2, 1 mM DTT, 5% glycerol, 0.5 mM EGTA and 100 mM KOAc in a final reaction volume of 40 μl. Primer extension products were analyzed on a 15% polyacrylamide gel containing 7 M urea. A characteristic telomerase ladder has multiple bands. If a compound is not a substrate then (TTAGGG)3TTA (21 nt) (SEQ ID NO: 2). If a compound is a chain terminator then (TTAGGG)3TTAG* (22 nt) (SEQ ID NO: 3).
Purified human telomerase was incubated with d(TTAGGG)3 (SEQ ID NO: 1) and deoxy-nucleoside triphosphates for 90 minutes at 37° C. All reactions were done in the presence of 200 dTTP and 10 μM dATP (50,000 cpm/pmol a-^33P-dATP). Activity was determined by incubating affinity purified telomerase extract with […] primer [d(TTAGGG)3] (SEQ ID NO: 1), […] [α-^33P]dATP (2000-4000 Ci/mmol) in a buffer containing 50 mM (N-2-hydroxyethyl piperazine-N′-3 propanesulfonic acid)-NaOH pH 8.5, 1 mM MgCl2, 1 mM DTT, 5% glycerol, 0.5 mM EGTA and 100 mM KOAc in a final reaction volume of 40 μl. Primer extension products were analyzed on a 15% polyacrylamide gel containing 7 M urea. A characteristic telomerase ladder has multiple bands. If a compound is not a substrate then (TTAGGG)3TTA (21 nt) (SEQ ID NO: 2). If a compound is a chain terminator then (TTAGGG)3TTAG* (22 nt) (SEQ ID NO: 3).

Another test has as its target telomerase in HT3 cells (Homo sapiens (Human), UniProt O14746). Briefly: Ex vivo TRAP assay in HT3 cells. In kind it is cell-based. The conditions noted are these: HT3 cells; for EC50: 3 days, read-out: ExVivo TRAP EC50 (μM)- 3 Day Assay. How it is done:
HT3 cells were treated for three days with increasing concentrations of PMPG-diisopropyloxy ester ranging from 0.2 μM to 20 μM. Cells (HT3 RPMI+10% PBS) were incubated with compound for 24 hr after which PSTS primer (phosphorothioate-d(AATCCGTCGAGCAGAGTT (SEQ ID NO: 6) containing a 5′ Cy-5 label) (7.5 μM) and fresh compound are added for an additional 24 hr. Cells were lysed and endogenous telomerase inactivated by heating (15 min, 75° C.). Products were amplified by 30 cycles of PCR under TRAP conditions set forth above and quantified. The results of two independent experiments are shown in Table 4.
HT3 cells were treated for three days with increasing concentrations of one or more of the indicated compounds ranging from 0.2 μM to 20 μM. Cells (HT3 RPMI+10% FBS) were incubated with compound for 24 hours, after which PSTS primer (phosphorothioate-d AATCCGTCGAGCAGAGTT (SEQ ID NO: 6) containing a 5′ Cy-5 label) (7.5 μM) and fresh compound were added for an additional 24 hours. Cells were lysed and endogenous telomerase inactivated by heating (15 minutes, 75° C.). Products were amplified by 30 cycles of PCR under TRAP conditions set forth in Kim et al., Science 266:2011, […] (which reference is incorporated herein in its entirety) and quantified.

pEC50, pIC50: −log10 of the molar value. Where “and” joins values, the source holds several entries; their conditions need not be identical. Equal values may be shown once. Bounds are passed on as bounds.

Chain of telomerase in HT3 cells (O14746 whole entry): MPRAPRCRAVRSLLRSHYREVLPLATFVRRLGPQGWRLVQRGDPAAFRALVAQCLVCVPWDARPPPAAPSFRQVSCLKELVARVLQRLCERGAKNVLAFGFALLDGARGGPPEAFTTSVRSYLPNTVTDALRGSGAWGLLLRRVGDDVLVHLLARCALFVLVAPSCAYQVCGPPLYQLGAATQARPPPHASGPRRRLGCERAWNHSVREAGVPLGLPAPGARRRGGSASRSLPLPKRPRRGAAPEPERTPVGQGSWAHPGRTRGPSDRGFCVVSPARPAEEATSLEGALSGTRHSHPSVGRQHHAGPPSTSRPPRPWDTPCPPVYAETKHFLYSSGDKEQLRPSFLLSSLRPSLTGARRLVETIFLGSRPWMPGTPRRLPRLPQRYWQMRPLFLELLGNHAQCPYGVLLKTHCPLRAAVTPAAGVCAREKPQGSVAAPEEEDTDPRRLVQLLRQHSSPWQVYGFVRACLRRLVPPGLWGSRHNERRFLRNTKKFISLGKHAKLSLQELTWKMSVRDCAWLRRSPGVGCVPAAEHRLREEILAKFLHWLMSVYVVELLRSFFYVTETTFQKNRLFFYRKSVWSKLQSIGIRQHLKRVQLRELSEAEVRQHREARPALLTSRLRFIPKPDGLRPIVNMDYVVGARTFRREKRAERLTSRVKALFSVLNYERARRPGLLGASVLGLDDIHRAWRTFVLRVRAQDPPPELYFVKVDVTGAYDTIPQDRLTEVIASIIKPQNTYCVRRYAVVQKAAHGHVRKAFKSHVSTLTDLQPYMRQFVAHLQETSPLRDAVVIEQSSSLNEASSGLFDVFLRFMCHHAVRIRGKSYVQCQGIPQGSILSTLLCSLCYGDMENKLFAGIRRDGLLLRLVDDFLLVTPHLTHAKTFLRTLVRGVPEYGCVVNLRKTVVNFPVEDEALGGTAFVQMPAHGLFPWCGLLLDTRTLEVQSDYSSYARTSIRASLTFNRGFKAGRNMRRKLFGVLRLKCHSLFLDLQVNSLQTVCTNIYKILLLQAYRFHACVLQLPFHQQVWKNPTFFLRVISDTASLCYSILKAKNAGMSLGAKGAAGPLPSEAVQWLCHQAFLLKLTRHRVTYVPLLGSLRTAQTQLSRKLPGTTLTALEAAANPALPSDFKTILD
Chain of telomerase in HT3 cells (O60832 whole entry partner): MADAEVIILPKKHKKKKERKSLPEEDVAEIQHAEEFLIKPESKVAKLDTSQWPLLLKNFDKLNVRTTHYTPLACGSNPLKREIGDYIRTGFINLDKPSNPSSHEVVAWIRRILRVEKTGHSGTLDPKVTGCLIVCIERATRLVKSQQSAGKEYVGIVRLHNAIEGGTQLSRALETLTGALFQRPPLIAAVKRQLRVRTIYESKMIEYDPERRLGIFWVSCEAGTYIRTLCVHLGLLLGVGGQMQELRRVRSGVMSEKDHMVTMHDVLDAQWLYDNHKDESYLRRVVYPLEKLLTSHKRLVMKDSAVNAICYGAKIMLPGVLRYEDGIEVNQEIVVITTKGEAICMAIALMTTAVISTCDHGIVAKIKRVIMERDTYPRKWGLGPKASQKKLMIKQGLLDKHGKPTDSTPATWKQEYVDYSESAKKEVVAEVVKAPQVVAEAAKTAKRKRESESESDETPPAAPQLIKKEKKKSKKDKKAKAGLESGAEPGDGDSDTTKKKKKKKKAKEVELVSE
Chain of telomerase in HT3 cells (Q9NX24 whole entry partner): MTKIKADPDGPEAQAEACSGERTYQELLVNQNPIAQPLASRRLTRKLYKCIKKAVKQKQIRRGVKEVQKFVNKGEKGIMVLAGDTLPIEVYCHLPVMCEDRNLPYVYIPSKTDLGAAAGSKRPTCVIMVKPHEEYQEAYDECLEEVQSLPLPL
Chain of telomerase in HT3 cells (Q9NPE3 whole entry partner): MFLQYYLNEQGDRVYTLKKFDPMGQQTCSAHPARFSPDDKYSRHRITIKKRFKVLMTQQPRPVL
Chain of telomerase in HT3 cells (Q9NY12 whole entry partner): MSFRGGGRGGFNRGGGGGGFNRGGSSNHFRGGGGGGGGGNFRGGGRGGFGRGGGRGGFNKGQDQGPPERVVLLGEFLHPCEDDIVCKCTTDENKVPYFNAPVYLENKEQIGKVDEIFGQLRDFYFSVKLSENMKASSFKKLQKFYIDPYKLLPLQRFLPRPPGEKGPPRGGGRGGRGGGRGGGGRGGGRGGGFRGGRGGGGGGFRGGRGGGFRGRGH
Chain of telomerase in HT3 cells (Q9BUR4 whole entry partner): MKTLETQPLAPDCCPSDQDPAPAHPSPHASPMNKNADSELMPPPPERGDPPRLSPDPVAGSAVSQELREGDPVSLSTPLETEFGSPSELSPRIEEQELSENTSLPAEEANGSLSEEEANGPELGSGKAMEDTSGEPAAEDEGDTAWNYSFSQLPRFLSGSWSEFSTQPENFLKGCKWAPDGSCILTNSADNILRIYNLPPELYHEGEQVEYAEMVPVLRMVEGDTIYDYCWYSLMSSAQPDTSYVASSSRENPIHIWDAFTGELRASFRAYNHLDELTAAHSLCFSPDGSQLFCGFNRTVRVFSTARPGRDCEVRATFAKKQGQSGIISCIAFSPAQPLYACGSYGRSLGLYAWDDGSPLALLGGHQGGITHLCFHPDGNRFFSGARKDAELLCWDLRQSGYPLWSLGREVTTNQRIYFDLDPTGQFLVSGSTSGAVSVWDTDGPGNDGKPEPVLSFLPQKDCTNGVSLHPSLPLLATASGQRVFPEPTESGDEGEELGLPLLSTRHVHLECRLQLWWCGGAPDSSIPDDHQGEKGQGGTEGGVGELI
Chain of telomerase (O14746 whole entry): as the sequence (O14746 whole entry) above

Usually pEC50 stands for −log10 of the EC50, conventionally taken in molar units. For the compound `CC(Cn1cnc2c(=O)[nH]c(N)nc21)OCP(=O)(O)OP(=O)(O)OP(=O)(O)O` (single isomer, unassigned) [Compound 142692], at telomerase, the “Primer Ext. Assay Notes: telomerase substrate / chain terminator” value was “Chain terminator” and the pEC50 was 5.92 to 6.30. With `CC(C)OC(=O)OCOP(=O)(COC(C)Cn1cnc2c(=O)[nH]c(N)nc21)OCOC(=O)OC(C)C` (single isomer, unassigned) [ID#142748, PMPG prodrug, S form], at telomerase in HT3 cells (0.2 μM to 20 μM, two independent experiments, read-out: Ex vivo Assay IC 50), the pIC50 is < 4.70. The term EC50 denotes the concentration giving half of the maximal effect. With `CC(Cn1cnc2c(=O)[nH]c(N)nc21)OCP(=O)(O)O` (single isomer, unassigned) [compound 142693], the EC50 on telomerase in HT3 cells worked out at 11.7 µM. On the same count and under the same terms, as for `CC(C)OC(=O)OCOP(=O)(COC(C)Cn1cnc2c(=O)[nH]c(N)nc21)OCOC(=O)OC(C)C` (single isomer, unassigned) [compound 142715], the figure is 1.2 µM and 3.1 µM.

Consider `C[C@@H](COCP(=O)(O)OP(=O)(O)OP(=O)(O)O)Cn1cnc2c(=O)[nH]c(N)nc21` (stereo in doubt) [Compound 142860], for which the “Primer Ext. Assay Notes: telomerase substrate / chain terminator” value on telomerase is listed as “Weak chain terminator”. As to `CC(Cn1cnc2c(=O)[nH]c(N)nc21)OCP(=O)(O)OP(=O)(O)OP(=O)(O)O` (stereo not drawn) [Compound 142751], at telomerase, the “Primer Ext. Assay Notes: telomerase substrate / chain terminator” value is recorded as “Weak chain terminator”. The same measure, in the same setting: as for `CC(Cn1cnc2c(=S)[nH]c(N)nc21)OCP(=O)(O)OP(=O)(O)OP(=O)(O)O` (stereo not drawn) [Compound 142752], the entry is “Weak chain terminator”. Regarding `CC(Cn1cnc2c(=S)[nH]c(N)nc21)OCP(=O)(O)OP(=O)(O)OP(=O)(O)O` (stereo not drawn) [Compound 142761], on telomerase, the “Primer Ext. Assay Notes: telomerase substrate / chain terminator” value was “Chain terminator” and the pEC50 is 4.87. The like results for `C=C(COCP(=O)(O)OP(=O)(O)OP(=O)(O)O)Cn1cnc2c(=O)[nH]c(N)nc21` [Compound 142810] were, in that order, “Chain Terminator” and 5.85. With `C[C@H](Cn1cnc2c(=O)[nH]c(N)nc21)SCP(=O)(O)OP(=O)(O)OP(=O)(O)O` [Compound 142823], the “Primer Ext. Assay Notes: telomerase substrate / chain terminator” value at telomerase was “Weak chain terminator”. `CC(COCP(=O)(O)OP(=O)(O)OP(=O)(O)O)Cn1cnc2c(=O)[nH]c(N)nc21` (stereo not drawn) [Compound 142846]: on telomerase, the “Primer Ext. Assay Notes: telomerase substrate / chain terminator” value is recorded as “Chain terminator” and the pEC50 is 5.36.

For the compound `Nc1nc2c(ncn2CCCOCP(=O)(O)OP(=O)(O)OP(=O)(O)O)c(=O)[nH]1` [Compound 142848], on telomerase, the “Primer Ext. Assay Notes: telomerase substrate / chain terminator” value was “Chain terminator”; the “potency relative to PMPG (R-PMPGpp), times less potent” value is given as ~2; the pEC50 is 5.82. Regarding `Nc1nc2c(ncn2CC(OCP(=O)(O)OP(=O)(O)OP(=O)(O)O)C(F)(F)F)c(=O)[nH]1` (stereo not drawn) [Compound 142850], the “Primer Ext. Assay Notes: telomerase substrate / chain terminator” value at telomerase is given as “Weak chain terminator”. For `Nc1nc2c(ncn2CC(CF)OCP(=O)(O)OP(=O)(O)OP(=O)(O)O)c(=O)[nH]1` (stereo not drawn) [Compound 142856], at telomerase, the “Primer Ext. Assay Notes: telomerase substrate / chain terminator” value is reported as “Chain terminator” and the pEC50 was 5.12.

With `CC(COCP(=O)(O)OP(=O)(O)OP(=O)(O)O)n1cnc2c(=O)[nH]c(N)nc21` (stereo not drawn) [Compound 142879], at telomerase, the “Primer Ext. Assay Notes: telomerase substrate / chain terminator” value is listed as “Chain terminator” and the pEC50 is 5.51. Turning to `CC(C)(Cn1cnc2c(=O)[nH]c(N)nc21)OCP(=O)(O)OP(=O)(O)OP(=O)(O)O` [Compound 142891], at telomerase, the “Primer Ext. Assay Notes: telomerase substrate / chain terminator” value is listed as “Weak chain terminator”. In the case of `C[C@H](CCn1cnc2c(=O)[nH]c(N)nc21)OCP(=O)(O)OP(=O)(O)OP(=O)(O)O` [Compound 142915], the pEC50 on telomerase was < 4.22. Same read-out and setting: then `CC[C@H](Cn1cnc2c(=O)[nH]c(N)nc21)OCP(=O)(O)OP(=O)(O)OP(=O)(O)O` [Compound 142916], with 5.00. As to `C=C(COCP(=O)(O)OP(=O)(O)OP(=O)(O)O)Cn1cnc2c(=O)[nH]c(N)nc21` [ID#142810, PMIBeG, free acid], the “potency relative to PMPG (R-PMPGpp), times less potent” value on telomerase is recorded as “approximately two times less potent than R-PMPGpp”. On to `CC(Cn1cnc2c(=S)[nH]c(N)nc21)OCP(=O)(O)O` (stereo not drawn) [compound 142694], for which the EC50 on telomerase in HT3 cells was determined as 7.54 µM. `C=C(COCP(=O)(O)O)Cn1cnc2c(=O)[nH]c(N)nc21` [compound 142811]: the EC50 at telomerase in HT3 cells is 2.6 µM. Same read-out and setting: as for `CC(Cn1cnc2c(=O)[nH]c(N)nc21)OCP(=O)(O)NCCCNCCCCN` (stereo not drawn) [compound 142812], the figure is 5 µM. On the same count and under the same terms, then `C=C(COCP(=O)(O)NCCCNCCCCN)Cn1cnc2c(=O)[nH]c(N)nc21` [compound 142873], with 6.7 µM; and `CC(Cn1cnc2c(=O)[nH]c(N)nc21)OCP(=O)(O)NCCCNCCCCNCCCNP(=O)(O)COC(C)Cn1cnc2c(=O)[nH]c(N)nc21` (stereo not drawn) [compound 142942], with 1.84 µM. The same measure, in the same setting: as for `CCCCCCCCCCNP(=O)(O)COC(C)Cn1cnc2c(=O)[nH]c(N)nc21` (stereo not drawn) [compound 142962], the figure is 1.44 µM.
